Read-outs that look alike come from different tables or passages of the source.
Key:
[1] = target: T1, PAK2 (Homo sapiens, UniProt Q13177); assay: Z'-LYTE FRET kinase inhibition assay; assay type: biochemical; set-up: PAK2 (full length); purchased Invitrogen PV4565
Protocol: The activity/inhibition of human recombinant PAK1 (kinase domain) or PAK2 (full length) was determined by measuring the phosphorylation of a FRET peptide substrate (Ser/Thr19) labeled with Coumarin and Fluorescein using Z′-LYTE™ assay (Invitrogen). The 10 μL assay mixtures contained 50 mM HEPES (pH 7.5), 0.01% Brij-35, 10 mM MgCl2, 1 mM EGTA, 2 μM FRET peptide substrate, and PAK enzyme (20 pM PAK1; 50 pM PAK2). Incubations were carried out at 22° C. in black polypropylene 384-well plates (Corning Costar). Prior to the assay, enzyme, FRET peptide substrate and serially diluted test compounds were preincubated together in assay buffer (7.5 μL) for 10 minutes, and the assay was initiated by the addition of 2.5 μL assay buffer containing 4×ATP (160 μM PAK1; 480 μM PAK2). Following the 60-minute incubation, the assay mixtures were quenched by the addition of 5 μL of Z′-LYTE™ development reagent, and 1 hour later the emissions of Coumarin (445 nm) and Fluorescein (520 nm) were determined after excitation at 400 nm using an Envision plate reader (Perkin Elmer). […].

[2] = target: T2, PAK1 (Homo sapiens, UniProt Q13153); assay: Z'-LYTE FRET kinase inhibition assay; assay type: biochemical; set-up: human recombinant PAK1 (kinase domain); purchased Invitrogen PV2830; conditions: for PAK1 inhibitory activity and selectivity of conjugate: vs PAK2 and PAK4
Protocol: The activity/inhibition of human recombinant PAK1 (kinase domain) or PAK2 (full length) was determined by measuring the phosphorylation of a FRET peptide substrate (Ser/Thr19) labeled with Coumarin and Fluorescein using Z′-LYTE™ assay (Invitrogen). The 10 μL assay mixtures contained 50 mM HEPES (pH 7.5), 0.01% Brij-35, 10 mM MgCl2, 1 mM EGTA, 2 μM FRET peptide substrate, and PAK enzyme (20 pM PAK1; 50 pM PAK2). Incubations were carried out at 22° C. in black polypropylene 384-well plates (Corning Costar). […] Following the 60-minute incubation, the assay mixtures were quenched by the addition of 5 μL of Z′-LYTE™ development reagent, and 1 hour later the emissions of Coumarin (445 nm) and Fluorescein (520 nm) were determined after excitation at 400 nm using an Envision plate reader (Perkin Elmer).
Target sequence in this assay (Q13153 270-521 limits assumed): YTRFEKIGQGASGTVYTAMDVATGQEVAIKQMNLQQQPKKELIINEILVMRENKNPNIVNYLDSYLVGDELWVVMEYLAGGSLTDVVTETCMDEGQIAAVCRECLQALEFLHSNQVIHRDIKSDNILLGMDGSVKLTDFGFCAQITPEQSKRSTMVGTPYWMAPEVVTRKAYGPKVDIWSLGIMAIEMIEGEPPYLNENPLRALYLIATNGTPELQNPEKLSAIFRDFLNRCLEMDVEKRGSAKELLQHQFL

[3] = target: PAK4 (Homo sapiens, UniProt O96013); assay: Z'-LYTE FRET kinase inhibition assay; assay type: biochemical; set-up: purchased Invitrogen
Description: […]. […] […].

[4] = target: T1, PAK2; assay: PAK2 degradation in MCF7 and OVCAR3 cells, immunoblot; assay type: cell-based; set-up: due to their high expression of both PAK1 and PAK2; endogenous in cells; host or cells: MCF7, OVCAR3
Protocol: […]. Cells were incubated overnight then treated with various concentrations of Pak degraders alone or together with bortezomib or lenalidomide for 24 hours. Protein lysates were harvested at the times specified.
Cells were washed once in PBS and lysed in RIPA buffer (50 mM Tris-HCl, 150 mM NaCl, 0.25% (w/v) sodium deoxycholate, 1% (w/v) NP-40, pH 7.5) containing protease inhibitor cocktail (Roche) and phosphatase inhibitor cocktail (Roche) for 30 minutes on ice. Cell lysates were obtained by centrifugation at 13,500 rpm for 15 minutes at 4° C. BCA protein assay (Thermo Scientific) was used to determine protein concentration then equal amounts of total proteins were separated by SDS-PAGE (Bio-Rad) and transferred to PVDF membrane (Thermo Scientific) at 100V for 2 hours. Membranes were blocked in 5% (w/v) non-fat dry milk in tris-buffered saline with 0.1% Tween-20 (TBS-T) for 1 hour and incubated with primary antibody at 4° C. for overnight. […]
After verifying that BJG-05-039 retained specificity for PAK1, its degradation activity in cells was characterized. First, the PAK1 degrader was evaluated in the breast cancer cell line MCF7 and the ovarian cancer cell line OVCAR3 due to their high expression of both PAK1 and PAK2 and their known dependence on PAK1 (Prudnikova, et al. (2016) Oncogene 35:2178-2185; Shrestha, et al. (2012) Oncogene 31:3397-3408). […]

[5] = test system: MCF7 cells; assay: Cell proliferation, MTT assay; assay type: cell-based; conditions: for Effect on cell proliferation: MCF7 cells; for EC50: Homo sapiens, MCF7, read-out: EC50, anti-proliferative, MCF7 cells
Protocol: (§1) Cell proliferation was assessed by MTT assay.
(§2) Cell viability was measured by MTT assay and the half maximal inhibitory concentration (IC50) was calculated using GraphPad Prism. Triplicates were performed for each sample and medium alone was used as a blank.
(§3) The anti-proliferative effects of PAK1 degradation and inhibition were evaluated.

[6] = test system: OVCAR3 cells; assay: Cell proliferation, MTT assay; assay type: cell-based; conditions: for Effect on cell proliferation: OVCAR3 cells; for EC50: Homo sapiens, OVCAR-3, read-out: EC50, anti-proliferative, OVCAR3 cells
Protocol: […]. Cell proliferation was assessed by MTT assay. […].
Cells were plated at 2×10^3 cells per well in 96-well plates overnight and treated with various concentrations of Pak degraders for 72 hours. Cell viability was measured by MTT assay and the half maximal inhibitory concentration (IC50) was calculated using GraphPad Prism. Triplicates were performed for each sample and medium alone was used as a blank.
The anti-proliferative effects of PAK1 degradation and inhibition were evaluated. […]. […] […]. […] […].

[7] = target: T2, PAK1; assay: PAK1 degradation in MCF7 and OVCAR3 cells, immunoblot; assay type: cell-based; set-up: endogenous in cells; host or cells: MCF7, OVCAR3; conditions: MCF7 and OVCAR3 cells
Protocol: Protein lysates were harvested at the times specified.
Cell lysates were obtained by centrifugation at 13,500 rpm for 15 minutes at 4° C. BCA protein assay (Thermo Scientific) was used to determine protein concentration then equal amounts of total proteins were separated by SDS-PAGE (Bio-Rad) and transferred to PVDF membrane (Thermo Scientific) at 100V for 2 hours. Membranes were blocked in 5% (w/v) non-fat dry milk in tris-buffered saline with 0.1% Tween-20 (TBS-T) for 1 hour and incubated with primary antibody at 4° C. for overnight. Membranes were washed with TBS-T on the next day and incubated with HRP-conjugated secondary antibodies (Millipore) at room temperature for 1 hour and exposed to films after washing.
Target sequence in this assay (Q13153 whole entry, the tested form may be a part): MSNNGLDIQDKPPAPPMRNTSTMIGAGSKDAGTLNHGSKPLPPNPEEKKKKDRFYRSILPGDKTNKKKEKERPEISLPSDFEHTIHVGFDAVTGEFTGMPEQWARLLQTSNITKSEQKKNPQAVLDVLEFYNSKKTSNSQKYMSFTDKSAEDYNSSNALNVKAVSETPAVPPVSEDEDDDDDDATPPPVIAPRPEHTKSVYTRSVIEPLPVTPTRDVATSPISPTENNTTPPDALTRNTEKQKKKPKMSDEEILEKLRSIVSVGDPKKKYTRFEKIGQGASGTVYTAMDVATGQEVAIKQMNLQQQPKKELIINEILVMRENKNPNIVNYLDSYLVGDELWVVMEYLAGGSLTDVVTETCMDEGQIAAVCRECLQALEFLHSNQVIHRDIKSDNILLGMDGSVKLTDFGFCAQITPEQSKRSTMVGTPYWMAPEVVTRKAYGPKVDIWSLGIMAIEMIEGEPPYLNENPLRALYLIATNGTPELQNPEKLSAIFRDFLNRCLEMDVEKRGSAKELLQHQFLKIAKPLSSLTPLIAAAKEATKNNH

[8] = cited from earlier work
[9] = test system: OMM1 cells; assay: Cell proliferation, MTT assay; assay type: cell-based; conditions: OMM-1, read-out: EC50, anti-proliferative
Protocol: as §1, §2, §3

[10] = test system: Hey A8 cells; assay: Cell proliferation, MTT assay; assay type: cell-based; conditions: HEY A8, read-out: EC50, anti-proliferative
Protocol: as §1, §2, §3

[11] = cited from earlier work; remark: listed apart in the source

T1 sequence (Q13177 whole entry, the tested form may be a part): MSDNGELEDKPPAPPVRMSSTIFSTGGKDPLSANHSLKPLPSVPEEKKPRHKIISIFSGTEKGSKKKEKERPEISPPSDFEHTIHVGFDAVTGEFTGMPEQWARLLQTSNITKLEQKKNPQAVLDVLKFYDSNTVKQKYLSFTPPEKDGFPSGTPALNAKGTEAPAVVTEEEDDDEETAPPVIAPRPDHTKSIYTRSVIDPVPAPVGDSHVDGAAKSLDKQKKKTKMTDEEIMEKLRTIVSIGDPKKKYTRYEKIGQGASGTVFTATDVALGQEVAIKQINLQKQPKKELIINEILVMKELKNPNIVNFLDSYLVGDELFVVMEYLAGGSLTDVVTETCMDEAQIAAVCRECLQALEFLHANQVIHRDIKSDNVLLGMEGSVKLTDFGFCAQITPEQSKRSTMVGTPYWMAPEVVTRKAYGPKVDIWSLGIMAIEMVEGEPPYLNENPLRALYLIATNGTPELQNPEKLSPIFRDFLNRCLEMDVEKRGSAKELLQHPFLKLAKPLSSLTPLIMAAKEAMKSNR
Sequence of PAK4 (O96013 whole entry): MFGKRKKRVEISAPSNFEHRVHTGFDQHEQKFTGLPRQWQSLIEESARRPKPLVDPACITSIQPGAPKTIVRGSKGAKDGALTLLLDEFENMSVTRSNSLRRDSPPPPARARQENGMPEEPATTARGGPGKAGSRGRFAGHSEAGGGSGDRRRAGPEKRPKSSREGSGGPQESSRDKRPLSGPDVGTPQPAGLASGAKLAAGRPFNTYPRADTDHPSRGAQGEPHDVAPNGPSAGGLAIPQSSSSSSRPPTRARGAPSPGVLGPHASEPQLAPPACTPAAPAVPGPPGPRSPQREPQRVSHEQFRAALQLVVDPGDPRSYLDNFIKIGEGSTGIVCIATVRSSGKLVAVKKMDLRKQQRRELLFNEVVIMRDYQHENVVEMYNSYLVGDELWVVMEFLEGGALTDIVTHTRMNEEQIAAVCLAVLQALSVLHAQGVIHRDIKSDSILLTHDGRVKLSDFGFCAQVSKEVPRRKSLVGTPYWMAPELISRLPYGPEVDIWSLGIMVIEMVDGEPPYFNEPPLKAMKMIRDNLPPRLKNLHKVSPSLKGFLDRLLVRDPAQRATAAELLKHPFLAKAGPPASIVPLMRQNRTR

IC50 [1]	IC50 [2]	IC50 [3]	Structure (SMILES)	also measured
0.724 µM	0.432 µM	0.152 µM	O=C1CCC(N2C(=O)c3cccc(NCCOCCOCCC(=O)N4CC[C@H](NC5=Nc6cc(F)ccc6N(CC(F)F)c6ccc(Cl)cc65)C4)c3C2=O)C(=O)N1 (some centres unmarked) [BJG-05-014]	PAK1 inhibitory activity and selectivity of conjugate [2]: retained PAK1 inhibitory activity and selectivity
> 3.33 µM	> 1.11 µM	> 1 µM	O=C1CCC(N2C(=O)c3cccc(NCCCCCCC(=O)N4CC[C@H](NC5=Nc6cc(F)ccc6N(CC(F)F)c6ccc(Cl)cc65)C4)c3C2=O)C(=O)N1 (some centres unmarked) [BJG-05-017]	
> 10 µM	> 3.33 µM	> 10 µM	O=C(COc1cccc2c1C(=O)N(C1CCC(=O)NC1=O)C2=O)NCCCCCCC(=O)N1CC[C@H](NC2=Nc3cc(F)ccc3N(CC(F)F)c3ccc(Cl)cc32)C1 (some centres unmarked) [BJG-05-018]	
> 10 µM	6.3 µM	> 10 µM	O=C1CCC(N2C(=O)c3cccc(NCCCC(=O)N4CC[C@H](NC5=Nc6cc(F)ccc6N(CC(F)F)c6ccc(Cl)cc65)C4)c3C2=O)C(=O)N1 (some centres unmarked) [BJG-05-019]	
> 10 µM	> 10 µM	> 10 µM	Cc1ncsc1-c1ccc([C@H](C)NC(=O)C2C[C@@H](O)CN2C(=O)[C@@H](NC(=O)CCCCCCCC(=O)N2CC[C@H](NC3=Nc4cc(F)ccc4N(CC(F)F)c4ccc(Cl)cc43)C2)C(C)(C)C)cc1 (some centres unmarked) [BJG-05-020]	
6.75 µM	1.49 µM	3.86 µM	O=C1CCC(N2C(=O)c3cccc(NCCOCCOCCNC(=O)N4CC[C@H](NC5=Nc6cc(F)ccc6N(CC(F)F)c6ccc(Cl)cc65)C4)c3C2=O)C(=O)N1 (some centres unmarked) [BJG-05-022]	
> 10 µM	0.594 µM	> 10 µM	O=C1CCC(N2C(=O)c3cccc(NCCCCCNC(=O)N4CC[C@H](NC5=Nc6cc(F)ccc6N(CC(F)F)c6ccc(Cl)cc65)C4)c3C2=O)C(=O)N1 (some centres unmarked) [BJG-05-027]	PAK1 inhibitory activity and selectivity of conjugate [2]: retained PAK1 inhibitory activity and selectivity
	0.0325 µM		Cc1ccc(CO)cc1N(Cc1ccccc1C#N)c1nc(Nc2ccc(N3CCN(CCOCCOCCNc4cccc5c4C(=O)N(C4CCC(=O)NC4=O)C5=O)CC3)c(S(C)(=O)=O)c2)ncc1F (centres unmarked) [BJG-05-093, 2-(((2-((4-(4-(2-(2-(2-((2-(2,6-Dioxopiperidin-3-yl)-1,3-dioxoisoindolin-4-yl)amino)ethoxy)ethoxy)ethyl)piperazin-1-yl)-3-(methylsulfonyl)phenyl)amino)-5-fluoropyrimidin-4-yl)(5-(hydroxymethyl)-2-methylphenyl)amino)methyl)benzonitrile]	
	0.103 µM		Cc1ccc(CO)cc1N(Cc1ccccc1C#N)c1nc(Nc2ccc(N3CCN(C(=O)CCOCCOCCNc4cccc5c4C(=O)N(C4CCC(=O)NC4=O)C5=O)CC3)c(S(C)(=O)=O)c2)ncc1F (centres unmarked) [BJG-05-094, 2-(((2-((4-(4-(3-(2-(2-((2-(2,6-Dioxopiperidin-3-yl)-1,3-dioxoisoindolin-4-yl)amino)ethoxy)ethoxy)propanoyl)piperazin-1-yl)-3-(methylsulfonyl)phenyl)amino)-5-fluoropyrimidin-4-yl)(5-(hydroxymethyl)-2-methylphenyl)amino)methyl)benzonitrile]	
	0.0366 µM		Cc1ccc(CO)cc1N(Cc1ccccc1C#N)c1nc(Nc2ccc(N3CCN(CCOCCOCCOCCOCCNc4cccc5c4C(=O)N(C4CCC(=O)NC4=O)C5=O)CC3)c(S(C)(=O)=O)c2)ncc1F (centres unmarked) [BJG-05-095, 2-(((2-((4-(4-(14-((2-(2,6-Dioxopiperidin-3-yl)-1,3-dioxoisoindolin-4-yl)amino)-3,6,9,12-tetraoxatetradecyl)piperazin-1-yl)-3-(methylsulfonyl)phenyl)amino)-5-fluoropyrimidin-4-yl)(5-(hydroxymethyl)-2-methylphenyl)amino)methyl)benzonitrile]	
			CN1C(=O)CCC(N2C(=O)c3cccc(NCCCCCCCCNC(=O)N4CC[C@H](NC5=Nc6cc(F)ccc6N(CC(F)F)c6ccc(Cl)cc65)C4)c3C2=O)C1=O (stereo partly drawn) [BJG-05-098, (3S)-3-((2-Chloro-5-(2,2-difluoroethyl)-8-fluoro-5H-dibenzo[b,e][1,4]diazepin-11-yl)amino)-N-(8-((2-(J-methyl-2,6-dioxopiperidin-3-yl)-1,3-dioxoisoindolin-4-yl)amino)octyl)pyrrolidine-1-carboxamide]	PAK2 degradation [4]: did not induce degradation of PAK1 or PAK2; Effect on cell proliferation [5]: did not affect cell proliferation; Effect on cell proliferation [6]: did not affect cell proliferation; PAK1 degradation [7]: PAK1 degradation was not observed
			Nc1cccc2c1CN(C1CCC(=O)NC1=O)C2=O (centres unmarked) [lenalidomide, reference compound]	Effect on cell proliferation [5]: lacked significant antiproliferative effects; Effect on cell proliferation [6]: lacked significant antiproliferative effects

Structure (SMILES)	IC50 [1]	IC50 [2]	IC50 [3]	also measured
CC(C)NC(=O)N1CC[C@H](NC2=Nc3cc(F)ccc3N(CC(F)F)c3ccc(Cl)cc32)C1 [NVS-PAK1-1, reference compound]			> 10 µM	Half-life in rat liver microsomes [8]: short half-life; EC50 [9]: 12 µM; EC50 [10]: 33.6 µM; EC50 ([5]; first statement of b311): 11.9 µM; EC50 ([5]; second listing of b311): 11.8 µM; In vivo half-life [11]: short in vivo half-life; EC50 ([6]; first statement of b311): 3.68 µM; EC50 ([6]; second listing of b311): 8.9 µM

— US20250312462A1, “PAK1 DEGRADERS AND METHODS OF USE THEREOF” (INSTITUTE FOR CANCER RESEARCH D/B/A THE RESEARCH INSTITUTE …, priority 2022, published 2025)
